SMILES | melting point [°C]
CC(=O)N1CCC(C(=O)N[C@H]2CC[C@H](CCN3CCN(c4cccc(C(F)(F)F)c4)CC3)CC2)CC1 [Example 153, 1-Acetylpiperidine-4-carboxylic acid (4-{2-[4-(3-trifluoro-methylphenyl)piperazin-1-yl]ethyl}cyclohexyl)amide] | 173
N#CCC(=O)N[C@H]1CC[C@H](CCN2CCN(c3cccc(SC(F)(F)F)c3)CC2)CC1 [Example 343, 2-Cyano-N-(4-{2-[4-(3-trifluoromethylsulfanylphenyl)piperazin-1-yl]ethyl}cyclohexyl)-acetamide] | 165
N#CCC(=O)N[C@H]1CC[C@H](CCN2CCN(c3cc(Cl)ccc3Cl)CC2)CC1 [Example 228, 2-Cyano-N-(4-{2-[4-(2,5-dichlorophenyl)piperazin-1-yl]ethyl}cyclohexyl)acetamide] | 182 to 184
CC(=O)CN1CCC(CCN2CCN(c3cc(F)ccc3F)CC2)CC1 [Example 663, 1-(4-{2-[4-(2,5-Difluorophenyl)piperazin-1-yl]ethyl}piperidin-1-yl)propan-2-one] | 90
Cc1ccc(Cl)cc1N1CCN(CC[C@H]2CC[C@H](NC(=O)CC#N)CC2)CC1 [Example 155, N-(4-{2-[4-(5-Chloro-2-methylphenyl)piperazin-1-yl]ethyl}cyclohexyl)-2-cyanoacetamide] | 171 to 172
COc1cccc(N2CCN(CC[C@H]3CC[C@H](NC(=O)CCCC#N)CC3)CC2)c1 [Example 416, 4-Cyano-N-(4-{2-[4-(3-methoxyphenyl)piperazin-1-yl]ethyl}cyclohexyl)butanamide] | 145
N#CCCCC(=O)N[C@H]1CC[C@H](CCN2CCN(c3cc(F)c(F)c(F)c3F)CC2)CC1 [Example 98, 4-Cyano-N-(4-{2-[4-(2,3,4,5-tetrafluorophenyl)piperazin-1-yl]ethyl}cyclohexyl)butyramide] | 180
N#CCC(=O)N[C@H]1CC[C@H](CCN2CCN(c3ccc(F)c(C#N)c3)CC2)CC1 [Example 660, 2-Cyano-N-(4-{2-[4-(3-cyano-4-fluorophenyl)piperazin-1-yl]ethyl}cyclohexyl)acetamide] | 185
CCOc1cccc(N2CCN(CC[C@H]3CC[C@H](NC(=O)CC#N)CC3)CC2)c1 [Example 170, 2-Cyano-N-(4-{2-[4-(3-ethoxyphenyl)piperazin-1-yl]ethyl}cyclohexyl)acetamide] | 157 to 159
O=C(N[C@H]1CC[C@H](CCN2CCN(c3ccccc3F)CC2)CC1)C1=CCCCC1 [Example 67, Cyclohex-1-enecarboxylic acid (4-{2-[4-(2-fluorophenyl)-piperazin-1-yl]ethyl}cyclohexyl)-amide] | 209
COc1ccc(Cl)c(N2CCN(CCC3CCN(CC(C)=O)CC3)CC2)c1.Cl.Cl | 263
CC(=O)CN1CCC(CCN2CCN(c3ccc(C(F)(F)F)cc3)CC2)CC1 [Example 587, 1-(4-{2-[4-(4-Trifluoromethylphenyl)piperazin-1-yl]ethyl}pipericin-1-yl)propan-2-one] | 104
CC(=O)CN1CCC(CCN2CCN(c3cccc(C(C)C)c3)CC2)CC1.Cl.Cl | 252
CN(C)CCCC(=O)N[C@H]1CC[C@H](CCN2CCN(c3cccc(C(F)(F)F)c3)CC2)CC1 [Example 223, 4-Dimethylamino-N-(4-{2-[4-(3-trifluoromethylphenyl)piperazin-1-yl]ethyl}cyclohexyl)butanamide] | 128
COc1ccc(C)c(N2CCN(CC[C@H]3CC[C@H](NC(=O)CC#N)CC3)CC2)c1 [Example 198, 2-Cyano-N-(4-{2-[4-(5-methoxy-2-methylphenyl)piperazin-1-yl]ethyl}cyclohexyl)acetamide] | 178 to 180
CC(=O)CN1CCC(CCN2CCN(c3cc(F)cc(C(F)(F)F)c3)CC2)CC1.Cl.Cl | 295
Cc1ccc(C(F)(F)F)cc1N1CCN(CC[C@H]2CC[C@H](NC(=O)CC#N)CC2)CC1 [Example 383, 2-Cyano-N-(4-{2-[4-(2-methyl-5-trifluoromethylphenyl)piperazin-1-yl]ethyl}cyclohexyl)acetamide] | 192
CCOC(=O)Nc1cccc(N2CCN(CCC3CCN(CC(C)=O)CC3)CC2)c1 [Example 777, [3-(4-{2-[1-(2-oxopropyl)piperidin-4-yl]ethyl}piperazin-1-yl)phenyl]carbamic acid ethyl ester] | 118
COCCCC(=O)N[C@H]1CC[C@H](CCN2CCN(c3cccc(C(F)(F)F)c3)CC2)CC1 [Example 64, 4-Methoxy-N-(4-{2-[4-(3-trifluoromethylphenyl)piperazin-1-yl]ethyl}cyclohexyl)butanamide] | 149
COCC(=O)N[C@H]1CC[C@H](CCN2CCN(c3ccccc3C#N)CC2)CC1 [Example 58, N-(4-{2-[4-(2-Cyanophenyl)-piperazin-1-yl]ethyl}cyclohexyl)-2-methoxyacetamide] | 113
CC(C)Oc1cccc(N2CCN(CC[C@H]3CC[C@H](NC(=O)CC#N)CC3)CC2)c1.Cl | 191
O=C(CC1CC=CC1)N[C@H]1CC[C@H](CCN2CCN(c3ccccc3F)CC2)CC1 [Example 387] | 188
COc1ccc(C)cc1N1CCN(CCC2CCN(CC(C)=O)CC2)CC1.Cl.Cl | 260
CC(=O)CN1CCC(CCN2CCN(c3cc(Cl)ccc3F)CC2)CC1.Cl.Cl | 270

SMILES | melting point [°C]
O=C(N[C@H]1CC[C@H](CCN2CCN(c3cccc(C(F)(F)F)c3)CC2)CC1)C1CCCO1 (stereo partly drawn) [Example 40, Tetrahydrofuran-2-carboxylic acid (4-{2-[4-(3-trifluoromethylphenyl)piperazin-1-yl]ethyl}cyclohexyl)amide] | 135
N#CCCCC(=O)N[C@H]1CC[C@H](CCN2CC=C(c3cc(F)cc(C(F)(F)F)c3)CC2)CC1 | 114
CC(=O)CN1CCC(CCN2CCN(c3cccc4c3CCCC4)CC2)CC1.Cl.Cl | 320
CC(=O)CN1CCC(CCN2CCN(c3cccc(F)c3)CC2)CC1.Cl.Cl | 268
CC(=O)CC1CCC(CCN2CCN(c3cccc(C(F)(F)F)c3)CC2)CC1.Cl (stereo not drawn) | 160
CCC(=O)c1cccc(N2CCN(CCC3CCN(CC(C)=O)CC3)CC2)c1 [Example 604, 1-[3-(4-{2-[1-(2-Oxopropyl)piperidin-4-yl]ethyl}piperazin-1-yl)phenyl]propan-1-one] | 68
CC(=O)CN1CCC(CCN2CCN(c3cccc4c3CCCCC4)CC2)CC1.Cl.Cl | 300
Cc1cccc(N2CCN(CC[C@H]3CC[C@H](NC(=O)CC#N)CC3)CC2)c1C#N [Example 114, 2-Cyano-N-(4-{2-[4-(2-cyano-3-methylphenyl)piperazin-1-yl]ethyl}cyclohexyl)acetamide] | 221
COCC(=O)N[C@H]1CC[C@H](CCN2CCN(c3cc(C(C)(C)C)nc(C(C)(C)C)n3)CC2)CC1 [Example 122, N-(4-{2-[4-(2,6-Di-tert-butylpyrimidin-4-yl)piperazin-1-yl]ethyl}cyclohexyl)-2-methoxyacetamide] | 130
Cc1ccc(N2CCN(CC[C@H]3CC[C@H](NC(=O)CC(F)(F)F)CC3)CC2)cc1Cl [Example 492, N-(4-{2-[4-(3-Chloro-4-methylphenyl)piperazin-1-yl]ethyl}cyclohexyl)-3,3,3-trifluoropropanamide] | 192
N#CCCCC(=O)N[C@H]1CC[C@H](CCN2CCN(c3ccc(F)cc3F)CC2)CC1 [Example 401, 4-Cyano-N-(4-{2-[4-(2,4-difluorophenyl)piperazin-1-yl]ethyl}cyclohexyl)butanamide] | 167
COc1ccc(Cl)cc1N1CCN(CCC2CCN(CC(C)=O)CC2)CC1.Cl.Cl | 275
Cc1ccc(Cl)c(N2CCN(CC[C@H]3CC[C@H](NC(=O)CC#N)CC3)CC2)c1 [Example 227, N-(4-{2-[4-(2-Chloro-5-methylphenyl)piperazin-1-yl]ethyl}cyclohexyl)-2-cyanoacetamide] | 174
CCc1cccc(N2CCN(CC[C@H]3CC[C@@H](NC(=O)CC#N)CC3)CC2)c1 [Example 328, 2-Cyano-N-(4-{2-[4-(3-ethylphenyl)piperazin-1-yl]ethyl}cyclohexyl)acetamide] | 101
Cc1cccc(N2CCN(CC[C@H]3CC[C@H](NC(=O)C4=CCCC4)CC3)CC2)c1 [Example 380, Cyclopent-1-enecarboxylic acid {4-[2-(4-m-tolylpiperazin-1-yl)ethyl]cyclohexyl} amide] | 188
Cl.Cl.O=C(CN1CCC(CCN2CCN(c3cccc(C(F)(F)F)c3)CC2)CC1)c1ccc(F)c(F)c1 | 220
N#CCC(=O)N[C@H]1CC[C@H](CCN2CC=C(c3ccc(C(F)(F)F)cc3)CC2)CC1 | 217
CC(=O)CN1CCC(CCN2CCN(c3cccc(Cc4ccccc4)c3)CC2)CC1.Cl.Cl | 253
CC(C)(C)c1cc(N2CCN(CC[C@H]3CC[C@H](NC(=O)CC#N)CC3)CC2)nc(C(C)(C)C)n1 [Example 111, 2-Cyano-N-(4-{2-[4-(2,6-di-tert-butylpyrimidin-4-yl)piperazin-1-yl]ethyl}cyclohexyl)acetamide trans/cis 65/35] | 145
N#CCCCC(=O)N[C@H]1CC[C@H](CCN2CCN(c3cccc(Cl)c3F)CC2)CC1 [Example 205, N-(4-{2-[4-(3-Chloro-2-fluorophenyl)piperazin-1-yl]ethyl}cyclohexyl)-4-cyanobutanamide] | 186
Cl.N#CCCC(=O)N1CCC(CCN2CCN(c3cc(Cl)cc(C(F)(F)F)c3)CC2)CC1 | 128
O=C(CC(F)(F)F)N[C@H]1CC[C@H](CCN2CCN(c3cccc(F)c3)CC2)CC1 [Example 409, 3,3,3-Trifluoro-N-(4-{2-[4-(3-fluorophenyl)piperazin-1-yl]ethyl}cyclohexyl)propanamide] | 195
O=C(CC(F)(F)F)N[C@H]1CC[C@H](CCN2CCN(c3ccccc3F)CC2)CC1 [Example 87, 3,3,3-Trifluoro-N-(4-{2-[4-(2-fluorophenyl)piperazin-1-yl]ethyl}cyclohexyl)propanamide] | 207
CCCc1cccc(N2CCN(CCC3CCN(CC(C)=O)CC3)CC2)c1.Cl.Cl | 256

From patent US8802678B2, “Carbonylated (aza) cyclohexanes as dopamine D3 receptor ligands” (Bioprojet, priority 2006, dated 2014)
